Reference: PMC11725774 (Cancer Research Communications, 2025)
Where two headings read alike, the source gives them in different places.

Experiments:
[1] = test system: MOLM-14 cells (parental); assay: Growth inhibition of AML cell line; assay type: cell-based, human
Method: (§1) MV-4-11 cells expressing NRAS^G12D were prepared by transduction with a lentiviral vector encoding the NRAS^G12D mutation. Assays using a panel of parental Ba/F3 into which an additional copy of either WT or a mutant form of FLT3 was introduced were performed at Kyinno Biotechnology Co., Ltd. All cell lines were short tandem repeat authenticated at ATCC or at DSMZ when originally obtained, and no further authentication was done after receipt of the cells in the laboratory.
(§2) Assays using Ba/F3 cells expressing WT and mutant forms of FLT3 were performed by Kyinno Biotechnology. The cells were cultured in the medium recommended by the source for each cell line. Growth inhibition assays were performed using either Cell Titer 96 Aqueous One Solution Cell Proliferation assay (Promega, # G3581) or CCK8 (Dojindo, # CK-04). […] IC50 values were determined from growth inhibition curves fitted using GraphPad Prism and a nonlinear regression model with sigmoidal dose response. Unless otherwise indicated, data are presented as mean ± SEM.

[2] = test system: TUS/R line 3 (MOLM-14); assay: Growth inhibition of TUS-resistant subline; assay type: cell-based, human; conditions: for GI50: mean ± SEM (Supplementary Table 6)
[3] = test system: TUS/R line 4 (MOLM-14); assay: Growth inhibition of TUS-resistant subline; assay type: cell-based, human; conditions: for GI50: mean ± SEM (Supplementary Table 6)
[4] = test system: MV-4-11 cells; assay: Growth inhibition of AML cell line; assay type: cell-based, human
Method: as §1, §2

[5] = test system: TUS/R MOLM-14 cells; assay: Growth inhibition of TUS-resistant sublines versus parental; assay type: cell-based, human
[6] = test system: MV-4-11 NRAS G12D Clone 15; assay: Growth inhibition of NRAS G12D clone; assay type: cell-based, human; conditions: for GI50: MV-4-11 NRAS G12D, mean ± SEM
Method: as §1, §2

[7] = test system: MV-4-11 NRAS G12D Clone 1; assay: Growth inhibition of NRAS G12D clone; assay type: cell-based, human; conditions: for GI50: MV-4-11 NRAS G12D, mean ± SEM
Method: as §1, §2

[8] = test system: MV-4-11 NRAS G12D Clone 4; assay: Growth inhibition of NRAS G12D clone; assay type: cell-based, human
Method: as §1, §2

[9] = test system: Ba/F3 cells FLT3 D835Y; assay: Growth inhibition of Ba/F3 cells; assay type: cell-based, murine; conditions: Mus musculus, BaF3; Ba/F3 FLT3 D835Y; mean ± SD; read-out: GI50
Method: as §1, §2

[10] = test system: Ba/F3 cells FLT3 ITD/D835Y; assay: Growth inhibition of Ba/F3 cells; assay type: cell-based, murine; conditions: Mus musculus, BaF3; Ba/F3 FLT3 ITD/D835Y; mean ± SD; read-out: GI50
Method: as §1, §2

[11] = test system: Ba/F3 cells FLT3 ITD/F691L; assay: Growth inhibition of Ba/F3 cells; assay type: cell-based, murine; conditions: Mus musculus, BaF3; Ba/F3 FLT3 ITD/F691L; mean ± SD; read-out: GI50
Method: as §1, §2

[12] = test system: Ba/F3 cells FLT3 ITD; assay: Growth inhibition of Ba/F3 cells; assay type: cell-based, murine; conditions: Mus musculus, BaF3; Ba/F3 FLT3 ITD; mean ± SD; read-out: GI50
Method: as §1, §2

[13] = test system: MOLM-13 cells; assay: Growth inhibition of AML cell line; assay type: cell-based; conditions: Homo sapiens, mean ± SD
Method: as §1, §2

[14] = test system: TUS/R line 1 (MOLM-14); assay: Growth inhibition of TUS-resistant subline; assay type: cell-based; conditions: Homo sapiens, MOLM-14, read-out: IC50 (nmol/L), Mean ± SEM, TUS/R line 1
[15] = test system: TUS/R line 2 (MOLM-14); assay: Growth inhibition of TUS-resistant subline; assay type: cell-based; conditions: Homo sapiens, MOLM-14, read-out: IC50 (nmol/L), Mean ± SEM, TUS/R line 2
[16] = Homo sapiens, MOLM-14, mean ± SEM (Supplementary Table 6), read-out: GI50 (nM) Parental MOLM-14 (converted)
[17] = Homo sapiens, MOLM-14, read-out: GI50 (nM) TUS/R line 3
[18] = Homo sapiens, MOLM-14, read-out: GI50 (nM) TUS/R line 4
[19] = Homo sapiens, MV4-11, mean ± SEM (Supplementary Table 7), read-out: GI50 (nM) Parental (MV-4-11)
[20] = Homo sapiens, MV4-11, MV-4-11 NRAS G12D, high expression, mean ± SEM, read-out: GI50 (nM) Clone 4
[21] = Homo sapiens, MOLM-14, mean ± SD (Supplementary Table 4), read-out: GI50
[22] = Homo sapiens, MV4-11, MV-4-11, mean ± SD (Supplementary Table 4), read-out: GI50
[23] = 13 to […]-fold increase in NRAS G12D expression

SMILES | GI50 [1, 16] [nM] | GI50 [2, 17] [nM] | GI50 [3, 18] [nM] | GI50 [4, 19] [nM] | fold hypersensitive, TUS/R versus parental MOLM-14 [5] | GI50 ([6]; Homo sapiens, MV4-11) [nM] | GI50 ([7]; Homo sapiens, MV4-11) [nM] | further results
Nc1ncn([C@@H]2O[C@H](CO)[C@@H](O)[C@H]2O)c(=O)n1 [5-Azacytidine, 5-azacytidine] | 2140 ± 231 | 1620 ± 294 | 1580 ± 145 | – | – | – | – | –
Cc1c2c(nn1C)CSCc1cc(n(C)n1)CSc1cc(c3ccccc3c1)OCCCc1c(C(=O)O)n(C)c3c-2c(Cl)ccc13 [AZD5991] | 168 ± 33.7 | 22.8 ± 2.7 | 18.2 ± 1.6 | 32.5 ± 5.4 | ~8 fold | 7.2 ± 0.4 | 10.1 ± 3.2 | GI50 [8, 20]: 44.3 ± 8.3 nM
Cc1ccc2c(Nc3cccc(Cl)c3F)nccc2c1NC(=O)c1csc2c(N)ncnc12 [Belvarafenib, belvarafenib] | – | – | – | 750 ± 92.8 | – | 104 ± 11.1 | 187 ± 38.6 | GI50 [8, 20]: 209 ± 33.9 nM
Cn1c(=O)n(-c2ccc(C(C)(C)C#N)cc2)c2c3cc(-c4cnc5ccccc5c4)ccc3ncc21 [Dactolisib, dactolisib] | 21.3 ± 1.4 | 28.9 ± 2.7 | 26.8 ± 1.8 | – | not more sensitive | – | – | –
COc1cc(Nc2ncc(F)c(Nc3ccc4c(n3)N(COP(=O)(O)O)C(=O)C(C)(C)O4)n2)cc(OC)c1OC [Fostamatinib, fostamatinib] | – | 176 ± 32.9 | 459 ± 86.2 | – | not more sensitive | – | – | –
Cc1cnc(-c2ccc(-c3ccc(NC(=O)Nc4c(F)cc(F)cc4F)cc3F)c3c2C(=O)NC3)[nH]1 [Luxeptinib] | 0.2 ± 0.01 | 0.1 ± 0.01 | 0.1 ± 0.01 | – | – | – | – | –
CO[C@@H]1[C@H](N(C)C(=O)c2ccccc2)C[C@H]2O[C@]1(C)n1c3ccccc3c3c4c(c5c6ccccc6n2c5c31)C(=O)NC4 [Midostaurin, midostaurin] | – | – | – | – | – | – | – | GI50 [9]: 9 ± 2.7 nM; GI50 [10]: 21 ± 1.1 nM; GI50 [11]: 16 ± 3.5 nM; GI50 [12]: 5.1 ± 0.1 nM; GI50 [13]: 19 ± 14 nM; GI50 [1, 21]: 12 ± 7.1 nM; GI50 [4, 22]: 6 ± 1.4 nM
CC1(C)CCC(c2ccc(Cl)cc2)=C(CN2CCN(c3ccc(C(=O)NS(=O)(=O)c4ccc(N[C@H](CCN5CCOCC5)CSc5ccccc5)c(S(=O)(=O)C(F)(F)F)c4)cc3)CC2)C1 [Navitoclax, navitoclax] | 410 ± 50.2 | 15.3 ± 2.4 | 15 ± 2.1 | – | ~27 fold | – | – | –
COC1=CC(c2cc3ccccc3[nH]2)=N/C1=C\c1[nH]c(C)cc1C [Obatoclax, obatoclax] | 98.2 ± 7.7 | 164 ± 14.7 | 142 ± 9.1 | – | no increase in sensitivity | – | – | –
CC(C)(C)c1cc(NC(=O)Nc2ccc(-c3cn4c(n3)sc3cc(OCCN5CCOCC5)ccc34)cc2)no1 [Quizartinib, quizartinib] | 0.5 ± 0.02 | 0.2 ± 0.1 | 0.5 ± 0.1 | 0.5 ± 0.1 | – | 1.3 ± 0.4 | 1.1 ± 0.2 | GI50 [13]: 0.9 ± 0.5 nM; GI50 [1, 21]: 0.6 ± 0.2 nM; GI50 [4, 22]: 0.2 ± 0.1 nM; GI50 ([8]; Homo sapiens, MV4-11, read-out: GI50 (nM) Clone 4): 1.9 ± 0.5 nM
N#CC[C@H](C1CCCC1)n1cc(-c2ncnc3[nH]ccc23)cn1 [Ruxolitinib, ruxolitinib] | – | ~1100 | ~1130 | – | – | – | – | –
Cc1c(-c2c(-c3ccc(F)o3)sc3ncnc(O[C@H](Cc4ccccc4OCc4ccnn4CC(F)(F)F)C(=O)O)c23)ccc(OCCN2CCN(C)CC2)c1Cl [S63845] | – | – | – | – | ~20 fold | – | – | GI50 ([1]; mean ± SEM (Supplementary Table 6), read-out: GI50 (nM) Parental MOLM-14 (converted)): 105 ± 19.8 nM; GI50 ([4]; mean ± SEM (Supplementary Table 7), read-out: GI50 (nM) Parental (MV-4-11)): 4.6 ± 0.4 nM; GI50 ([2]; read-out: GI50 (nM) TUS/R line 3): 5.6 ± 0.7 nM; GI50 ([3]; read-out: GI50 (nM) TUS/R line 4): 4.6 ± 0.3 nM; GI50 [6]: 1.5 ± 0.1 nM; GI50 [7]: 1.1 ± 0.3 nM; GI50 ([8]; MV-4-11 NRAS G12D, high expression, mean ± SEM, read-out: GI50 (nM) Clone 4): 7.3 ± 1.5 nM
CC(=O)Nc1cccc(-n2c(=O)n(C3CC3)c(=O)c3c(Nc4ccc(I)cc4F)n(C)c(=O)c(C)c32)c1 [Trametinib, trametinib] | 153 ± 14.5 | 67 ± 12.8 | 101.5 ± 0.4 | 6.7 ± 1.6 | ~1.9 fold | 2.3 ± 0.8 | 1.6 ± 0.4 | GI50 [8, 20]: 2.5 ± 0.7 nM
CC1(C)CCC(CN2CCN(c3ccc(C(=O)NS(=O)(=O)c4ccc(NCC5CCOCC5)c([N+](=O)[O-])c4)c(Oc4cnc5[nH]ccc5c4)c3)CC2)=C(c2ccc(Cl)cc2)C1 [Venetoclax, venetoclax] | – | – | – | 10.5 ± 1.7 | – | 4.9 ± 1.3 | 5.5 ± 1.4 | IC50 ([1]; Homo sapiens, MOLM-14, growth inhibition, three independent experiments, read-out: IC50 (nmol/L), Mean ± SEM, MOLM-14 parental): 3020 ± 464 nmol/L; IC50 [14]: 1.3 ± 0.1 nmol/L; IC50 [15]: 1.5 ± 0.05 nmol/L; IC50 ([2]; Homo sapiens, MOLM-14, read-out: IC50 (nmol/L), Mean ± SEM, TUS/R line 3): 1.1 ± 0.2 nmol/L; IC50 ([3]; Homo sapiens, MOLM-14, read-out: IC50 (nmol/L), Mean ± SEM, TUS/R line 4): 5 ± 0.8 nmol/L; change in sensitivity, clone 15 [6, 23]: did not alter sensitivity; change in sensitivity, clone 1 [7, 23]: did not alter sensitivity; GI50 [8, 20]: 2260 ± 156 nM; fold resistant / loss of sensitivity, clone 4 versus parental MV-4-11 ([8]; high NRAS G12D expression): 214 fold
